These results are taken from ChEMBL document CHEMBL4665895, “Covalent Bridging of Corilagin Improves Antiferroptosis Activity: Comparison with 1,3,6-Tri-O-galloyl-β-d-glucopyranose” (ACS Med Chem Lett, 2020).

The source made the active and inactive calls. The calls are words filed in the database; no cut-off is given here.

Assay [1] has as its system Bone marrow cell. Description: Anti-ferroptosis activity against erastin-induced ferroptosis in Sprague-Dawley rat bmMSC cells assessed as increase in cell viability at 0.47 to 4.7 uM preincubated for 12 hrs followed by compound addition and measured after 12 hrs by CCK8 assay. In kind it is functional, cell-based. To be noted: dose microM 0.47-4.7, time 12.0 hrs. On the technique in general: Formazan colour is commonly taken as a measure of viable cells.

For assay [2], the system named is Bone marrow cell. Description: Anti-ferroptosis activity against erastin-induced ferroptosis in Sprague-Dawley rat bmMSC cells assessed as inhibition of lipid peroxidation at 3 ug/ml preincubated for 12 hrs followed by compound addition and measured after 12 hrs by C11-Bodipy fluorescent dye based microscopic analysis. In kind it is functional. Particulars: dose 3.0 µg/ml.

Assay [3] is described as follows: Anti-ferroptosis activity against erastin-induced ferroptosis in Sprague-Dawley rat bmMSC cells assessed as cellular death at 4.7 uM after 1 hr by AnnexinV-FITC/propidium iodide staining-based flow cytometric analysis (reference value: 3.73%). In kind it is functional, Bone marrow cell.
The nature of assay [4]: Anti-ferroptosis activity against erastin-induced ferroptosis in Sprague-Dawley rat bmMSC cells assessed as late cell death at 4.7 uM after 1 hr by AnnexinV-FITC/propidium iodide staining-based flow cytometric analysis (reference value: 19.9%). In kind it is functional, Bone marrow cell. (In flow cytometry, cells or beads pass a laser one at a time.)
A short description of assay [5]: Anti-ferroptosis activity against erastin-induced ferroptosis in Sprague-Dawley rat bmMSC cells assessed as early cell death at 4.7 uM after 1 hr by AnnexinV-FITC/propidium iodide staining-based flow cytometric analysis (reference value: 10.4%). In kind it is functional, Bone marrow cell.
Assay [6] in a line: Anti-ferroptosis activity against erastin-induced ferroptosis in Spargue-Dawley rat bmMSCs cells assessed as cell viability at 4.7 uM after 1 hr by AnnexinV-FITC/propidium iodide staining based flow cytometry analysis (reference value: 65.9%). In kind it is functional. To be noted: Bone marrow cell, read-out: Activity.
Assay [7] is described as follows: Metal chelating activity assessed as Fe2+-compound complex formation incubated for 5 mins by colorimetry.
Assay [8] can be described thus: Antioxidant activity in pH 7.4 phosphate buffer assessed as PTIO radical scavenging activity after 1 hr by microplate reader based assay. In kind it is functional.
The nature of assay [9]: Antioxidant activity in pH 4.5 phosphate buffer assessed as PTIO radical scavenging activity after 1 hr by microplate reader based assay. In kind it is functional.
Assay [10] is described as follows: Antioxidant activity assessed as ferric ion reducing activity using FeCl3.H2O and TPTZ incubated for 30 mins by FRAP assay. The format is functional.
Assay [11] in a line: Antioxidant activity assessed as DPPH free radical scavenging activity after 5 mins by microplate reader based assay. In kind it is functional. (DPPH is a stable violet radical that fades when it is reduced.)
Assay [12] can be described thus: Potency index, ratio of trolox IC50 to test compound IC50 for antioxidant activity assessed as DPPH radical scavenging activity. In kind it is functional.
The nature of assay [13]: Antioxidant activity assessed as compound-DPPH adduct formation with covalent bridging by UHPLC-ESI-Q-TOF-MS analysis. The format is functional.
A short description of assay [14]: Metal chelating activity assessed as Fe2+-compound complex formation by measuring red shift by UV-visible spectrophotometry.

As for `O=C(OC[C@H]1O[C@@H](OC(=O)c2cc(O)c(O)c(O)c2)[C@H](O)[C@@H](OC(=O)c2cc(O)c(O)c(O)c2)[C@@H]1O)c1cc(O)c(O)c(O)c1`, the result in assay [1], in assay [2], in assay [13] and in assay [14] was Active. Besides, the Activity in [3] turned out to be 2.2%; in assay [4], 9%; in [5], 10.3%. Moreover, the viability at 4.7 µM in assay [6] came out at 78.4%. The half-inhibitory concentration (IC50) (in general, the point on the concentration scale where inhibition reaches its midpoint) in assay [7] was 11 µM; in assay [8] it was 115 µM; in [9], 290 µM; in assay [10], 35 µM; in assay [11] it was 1 µM. Also, the inhibition entry in [7], in assay [8], in [9], in assay [10] and in assay [11] was “Dose-dependent effect” throughout. Moreover, the Ratio IC50 in assay [12] was determined as 6.5.

Take `Cc1c(C)c2c(c(C)c1O)CCC(C)(C(=O)O)O2` (racemic) [TROLOX]: the IC50 in [8] came out at 445 µM; in [9], 289 µM; in assay [10] it was 81 µM; in assay [11] it was 7 µM.

Consider `O=C(O[C@@H]1O[C@@H]2COC(=O)c3cc(O)c(O)c(O)c3-c3c(cc(O)c(O)c3O)C(=O)O[C@H]([C@H]1O)[C@@H]2O)c1cc(O)c(O)c(O)c1` [CORILAGIN], for which the result in [1], in assay [2], in assay [13] and in [14] was Active. For the same compound, the Activity in assay [3] was determined as 2.7%; in assay [4], 7.8%; in [5], 9.2%. Besides, the viability at 4.7 µM in assay [6] stood at 80.2%. Also, the IC50 stood at 7 µM in assay [7]; 94 µM in [8]; 204 µM in [9]; 12 µM in [10]; 1 µM in assay [11]. The inhibition result in assay [7], in assay [8], in assay [9], in assay [10] and in assay [11] was “Dose-dependent effect” in each case. Further, in [12], the Ratio IC50 worked out at 8.

Consider `O=C([O-])CC(O)(CC(=O)[O-])C(=O)[O-].[Na+].[Na+].[Na+]` [SODIUM CITRATE], for which the IC50 in [7] came to 14 µM.
